Entries after “also recorded” stand apart in the source; their conditions may differ.
Tested on: RSV
Assay: Western blot analysis of phospholipid interference with RSV binding to HEp2 cells
Format: cell-based, human RSV A2 strain
Conditions: 50 μg/mL lipid, MOI 2.5, 2 hr
Description: HEp2 cells were plated in a 48-well plate at a density of 1×10^5 per well, 48-hours prior to performing binding studies. A multiplicity of infection (MOI) of 2.5 was used and conditions of a control with no RSV, RSV alone and RSV plus 50 μg/mL of selected lipids were added to cells for a 2-hour incubation at 18° C. This lower temperature was used so that RSV would adsorb to the cell surface with minimal endocytosis. After binding, cells were washed 4 times with cold PBS to remove any unattached virus. 80 μL of SDS-PAGE loading buffer (sample buffer+protease inhibitor+DTT) was added to each well and the plate was set in boiling water for 1 minute to lyse cells and solubilize proteins. Cell lysates were recovered by scraping and pipteing and stored at −20° C. Subsequently, thawed lysates were boiled for 5 min, and proteins were resolved on 8-16% gradient Tris-SDS-polyacrylamide gels. The separated proteins were transferred to nitrocellulose membranes and subsequently incubated in blocking buffer containing 20 mM Tris-HCl buffer (pH 7.6), 137 mM NaCl, 0.1% Tween 20, and 5% nonfat milk for 1 hour. After blocking, primary RSV antibody conjugated to HRP was diluted 1:500 in blocking solution, added to the membrane and incubated overnight at 4° C. The membranes were washed with TBS containing 0.1% Tween for 30 min, replacing the buffer every 10 min. The immunoreactive protein was detected using coumaric acid and luminol reagents and exposed to film. Developed films were scanned and Image J software was used for protein quantification. Beta-Actin was used a control for amount of protein loaded.
Because binding of lipid to RSV in a biochemical assay was not a good predictor of antiviral activity, PX lipids were tested for activity preventing viral attachment to the surface of cells. HEp2 cells were plated in a 48-well plate at a density of 1×10^5 per well, 48 hours prior to viral adsorption. RSV was added to cells at multiplicity of infection (MOI) 2.5 in the absence or presence of 50 μg/mL of select xylitol lipids. […] The moderately effective antiviral, DPPX was selected and the ineffective antiviral, 14:0 DEPX was selected. Viral adsorption to cells was performed at 18° C. to minimize endocytosis. RSV was incubated with HEp2 cells for 2 hours, rotating the plate every 30 minutes. Cells were washed with cold PBS to remove unbound virus and cells were lysed and collected. Cell lysates were electrophoresed on an SDS-PAGE gel, and transferred to nitrocellulose membrane. The RSV G protein was detected with antibody and Beta-actin was used as a protein loading control. The results are summarized and quantified in FIGS. 9A and 9B. In more detail, monolayers of HEp2 cells were incubated with RSV at a stoichiometry of 2.5 infectious particles/cell, at 0° C., to prevent endocytosis of virions. Following a 2 hr incubation the monolayers were washed three times with cold saline to remove unbound virus, and then the cells were harvested in a denaturing solution. The cell extracts were subjected to electrophoresis under reducing and denaturing conditions and the separated proteins were transferred to nitrocellulose. Viral proteins were detected by immunoblotting with polyclonal anti-RSV antibody and enhanced chemiluminescence. The immunoreactive bands were normalized using actin immunoblots. The immunoreactive viral proteins were quantified using Image J software. […] In contrast, POPG (PG) inhibits viral attachment by ˜85%, and the xylitol phospholipids 14:0 DEPX, POPX, 16:1 DPPX AND 18:1 DEPX inhibit viral attachment in the range of 80-90%.

CCCCCCCCCCCCCCCC(=O)OCC(COP(=O)(O)OCC(O)C(O)C(O)CO)OC(=O)CCCCCCCCCCCCCCC (centres unmarked) [DPPX, sn-1-palmitoyl, sn-2-palmitoyl sn-3 glycerol phosphoxylitol]
inhibition of RSV attachment to HEp2 cells: not inhibited; also recorded: did not

CCCCCCC=CCCCCCCCC(=O)OCC(COP(=O)(O)OCC(O)C(O)C(O)CO)OC(=O)CCCCCCCC=CCCCCCC (mixture of isomers) [16:1 DPPX, sn-1-palmitoleoyl, sn-2-palmitoleoyl sn-3 glycerol phosphoxylitol]
inhibition of RSV attachment to HEp2 cells: prevented RSV attachment to HEp2 cells

CCCCCCCCCCCCCCOC[C@H](COP(=O)(O)OCC(O)C(O)C(O)CO)OCCCCCCCCCCCCCC (mixture of isomers) [14:0 DEPX, sn-1-O-myristyl, sn-2-O-myristyl sn-3 glycerol phosphoxylitol]
inhibition of RSV attachment to HEp2 cells: appears to prevent viral binding to cells; also recorded: prevented RSV from binding to the cell surface

CCCCCCCCC=CCCCCCCCCOCC(COP(=O)(O)OCC(O)C(O)C(O)CO)OCCCCCCCCC=CCCCCCCCC (mixture of isomers) [18:1 DEPX, sn-1-O-octadecenyl, sn-2-O-octadecenyl sn-3 glycerol phosphoxylitol]
inhibition of RSV attachment to HEp2 cells: inhibit attachment; also recorded: prevented RSV attachment to HEp2 cells

CCCCCCCC/C=C\CCCCCCCC(=O)O[C@H](COC(=O)CCCCCCCCCCCCCCC)COP(=O)(O)OCC(O)CO (some centres unmarked) [POPG, palmitoyl-oleoyl-phosphatidylglycerol, reference compound]
inhibition of viral attachment to HEp2 cells: ~85%

CCCCCCCC/C=C\CCCCCCCC(=O)O[C@H](COC(=O)CCCCCCCCCCCCCCC)COP(=O)(O)OCC(O)C(O)C(O)CO (some centres unmarked) [POPX, sn-1-palmitoyl, sn-2-oleoyly sn-3 glycerol phosphoxylitol]
inhibition of RSV attachment to HEp2 cells: prevented RSV attachment to HEp2 cells

CCCCCCCCC=CCCCCCCCC(=O)OCC(COP(=O)(O)OCC(O)C(O)C(O)CO)OC(=O)CCCCCCCC=CCCCCCCCC (mixture of isomers) [DOPX, sn-1-oleoyl, sn-2-oleoyl sn-3 glycerol phosphoxylitol]
inhibition of RSV attachment to HEp2 cells: inhibit attachment

CCCCCCCC/C=C\CCCCCCCC(=O)O[C@H](COC(=O)CCCCCCCCCCCCCCC)COP(=O)([O-])OCC[N+](C)(C)C [POPC, 1-palmitoyl-2-oleoyl-sn-glycero-3-phosphocholine, reference compound]
inhibition of RSV attachment to HEp2 cells: not inhibited
